BindingDB's records for doi:10.1021/jm00355a015 (1983)
pIC50: −log10 of the molar value.

Molecular target: arachidonate 5-lipoxygenase (Cavia porcellus)
Test: Inhibitory activity against 5-lipoxygenase

Compound | pIC50
CCCCC/C=C\C\C=C/C=C/C=C/C1CC1CCCCC(=O)O (stereo not drawn) [5-(2-Tetradeca-1,3,5,8-tetraenyl-cyclopropyl)-pentanoic acid] | 4.70
CCCCC/C=C\C/C=C\C/C=C\C=C\C(CO)CCCC(=O)O (stereo not drawn) [5-Hydroxymethyl-icosa-6,8,11,14-tetraenoic acid] | 4.00
CCCCC/C=C\C/C=C\CC=CC=CC(=O)CCCC(=O)OC [5-Oxo-icosa-6,8,11,14-tetraenoic acid methyl ester] | 4.70
CCCCCCCCCCCCCCC1CC1CCCC(=O)O (stereo not drawn) [4-(2-Tetradecyl-cyclopropyl)-butyric acid] | 4.00
CCCCC/C=C\C\C=C/C=C/C=C/C1SC1CCCC(=O)OC (stereo not drawn) [4-(3-Tetradeca-1,3,5,8-tetraenyl-thiiranyl)-butyric acid methyl ester] | 4.19

Compounds with a higher pIC50, results first:

pIC50 | Compound
5.52 | CCCCC/C=C\C\C=C/C=C/C=C/C1CC1CCCC(=O)O (stereo not drawn) [4-(2-Tetradeca-1,3,5,8-tetraenyl-cyclopropyl)-butyric acid]
5.70 | CCCCC/C=C\C/C=C\C/C=C\C=C\[C@@H](O)CCCC(=O)O [(5S,6E,8Z,11Z,14Z)-5-hydroxyicosa-6,8,11,14-tetraenoic acid]
5.70 | CCCCC/C=C\C\C=C/C=C/C=C/[C@@H]1O[C@H]1CCCC(=O)O [4-{(2S,3S)-3-[(1E,3E,5Z,8Z)-tetradeca-1,3,5,8-tetraen-1-yl]oxiran-2-yl}butanoic acid]
